Measurements: patent US5410052A, “Symmetrical and unsymmetrical polyalkylamine metal complexes for ligand extraction and generation” (The Regents of the University of California, priority 1990, dated 1995)
Where two headings read alike, the source gives them in different places.

Experiments:
[1] = UV-visible spectroscopic evaluation of oxygen complex formation by cobalt carrier compounds; format: binding
Text: Initially, solutions of particular carrier compounds are monitored by UV-visible spectroscopy to determine whether the carrier compound forms oxygen complexes of sufficient stability as to be potentially useful in processes according to the present invention. UV-visible spectra of carrier compounds are also observed as a function of the pH to determine the pH range, if any, over which the carrier compounds bind oxygen without decomposition. The initial pH for use in further experiments (the "Working pH") is defined as one pH unit above that at which the proportion of carrier compound-oxygen complex is about 90% or more of the maximum formed under ca. 0.2 atm oxygen, as determined by this spectroscopic examination. […] An initial working pH can also be determined from potentiometric experiments on the oxygen complexes of cobalt carrier compounds, as will be discussed below.
The necessary UV and visible spectra necessary for this evaluation are obtained with any of a variety of commercially available spectrophotometers. The solution to be measured is prepared in or transferred to a suitable quartz cell with provision for the exclusion of oxygen. […] Spectra are then recorded under both oxygen free and oxygenated conditions at each of the desired pH values.

[2] = Potentiometric pH titration of polyalkylamines: protonation constants (basicity); format: physicochemical; conditions: 25°±0.1° C., ca. 1.5 mM PAA; Ref. 3 determined by applicants
Text: the equilibrium constants for successive protonations of the PAA compounds are defined by
KHi =[PAA(H^+)i ]/[PAA(H^+)i-1 ] [H^+ ](10)
Where spectrophotometric characterization of a particular cobalt carrier compound has proven satisfactory, both the polyalkylamine and the cobalt carrier compound are characterized by a set of potentiometric pH titrations to determine the basicity of the ligating atoms, the formation constants KML and KMLH, and the apparent oxygen binding equilibrium constants.
Potentiometric titrations are performed using a Fisher or Cole-Palmer pH meter in a sealed, jacketed glass cell equipped with glass and calomel electrodes and with provisions for performing measurements under oxygen-free conditions. The cell is kept at a constant temperature of 25°±0.1° C. by circulating water from a thermostated bath through the cell jacket. The electrodes and pH meter are standardized with commercially available standard buffer solutions (Fisher Scientific). The polyalkylamine ligands and cobalt carrier compounds were each titrated potentiometrically by incrementally adding standard potassium hydroxide solution and recording the pH of the solution after each addition of base. Titrations of the cobalt carrier compounds are carried out under prepurified nitrogen or argon; titrations of oxygenated carrier compounds are performed under oxygen treated with Ascarite to remove carbon dioxide.
All solutions contained ca. 1.5 mM PAA; for titrations of cobalt complexes, the solutions contained, in addition, 1.5 mM CoCl2.
Typical results obtained as outlined above from pH titrations of selected polyalkylamines, cobalt carrier compounds, and oxygen complexes of cobalt carrier compounds are graphically depicted in FIGS. 2, 3, and 4, and summarized in Table III. The values shown in Table III, defined by equations (6)-(8) and (10). above, were derived either by direct measurement from the titration curves obtained, or determined by the iterative best fit of the data to a computer program such as that described by Harris, et al., Inorganic Chemistry, vol. 17, p. 889, 890 (1978). Generally, although the latter values are considered to be more reliable, values obtained by either methods are approximately the same and sufficient for the present evaluation.

[3] = design: key to Log K02 (symbol): *: Oxygen complex is unstable.; **: No oxygen complex observed; conditions: cobalt complex, literature, cited from earlier work; for Log K02: dimeric oxygen complex, Ref. 1 or 4
[4] = literature, Ref. 1, 2 or 4; cited from earlier work
[5] = Cyclic voltammetry of Co(PAA)n+ carrier compounds; format: physicochemical; design: key to ΔE / EPA / EPC: N.O.: not observed due to low electrochemical activity
Procedure: Cyclic voltammentry experiments were performed under nitrogen or iar for the unoxygenated or oxygenated carrier compounds, respectively, in a cell having a platinum wire auxiliary electrode, a silver-silver chloride reference electrode, and suitable working electrode. The potential between the auxiliary and working electrodes was varied with a Princeton Applied Research (Princeton, N.J.) Scanning Potentiostate at 50 mV/s from a suitable initial with a suitable initial scan direction (Scan Dir.), depending on the electrochemical potentials if interest. All solutions contained 1 mM CoCl2, 1 mM or 1.5 mM PAA, and a supporting electrolyte, and were buffered to a suitable pH, usually about the initial working pH.
Cyclic voltammetry enables the estimation of anode (EPA) and cathode (EPC) half cell potentials, the cell potential ΔE=(EPA -EPC), and an approximate formal reaction potential […]. In addition, estimates of the rate of electron transfer to a particular electrode and electrochemical reversibility of the reaction can be obtained.

[6] = deox, 1.5 mM PAA, pH 9.0, 0.5M NaCl/0.1M Borate, glassy carbon, Einitial -0.3 V, scan +
[7] = ox, 1.5 mM PAA, pH 9.0, 0.5M NaCl/0.1M Borate, glassy carbon, Einitial -0.3 V, scan +
[8] = deox, 1.5 mM PAA, pH 3.0, 0.5M KCl/0.1M K2HPO4, gold, Einitial -0.3 V, scan +
[9] = ox, 1.0 mM PAA, pH 9.0, 0.5M NaCl/0.1M Borate, gold, Einitial +0.12 V, scan +
[10] = ox, 1.0 mM PAA, pH 6.0, 0.5M KCl/0.1M K2HPO4, glassy carbon, Einitial +0.1 V, scan +
[11] = deox, 1.0 mM PAA, pH 7.6, 0.5M NaCl/0.1M K2HPO4, gold, Einitial -0.3 V, scan +
[12] = ox, 1.0 mM PAA, pH 7.6, 0.5M KCl/0.1M K2HPO4, gold, Einitial +0.3 V, scan +
[13] = ox, 1.0 mM PAA, pH 3.0, 0.5M KCl/0.1M K2HPO4, glassy carbon, Einitial -0.05 V, scan +
[14] = deox, 1.0 mM PAA, pH 5.93, 0.5M KCl/0.1M K2HPO4, glassy carbon, Einitial +0.1 V, scan +
[15] = ox, 1.0 mM PAA, pH 5.93, 0.5M KCl/0.1M K2HPO4, glassy carbon, Einitial +0.1 V, scan +
[16] = ox, 1.0 mM PAA, pH 12.0, 0.5M KCl/0.1M K2HPO4, glassy carbon, Einitial +0.19 V, scan -
[17] = deox, 1.0 mM PAA, pH 10.1, 0.5M KCl/0.1M K2HPO4, glassy carbon, Einitial +0.15 V, scan -
[18] = ox, 1.0 mM PAA, pH 10.1, 0.5M KCl/0.1M K2HPO4, glassy carbon, Einitial +0.1 V, scan +

Row | SMILES | Log K1 [2] | Log K2 [2] | Log K3 [2] | Log K1 [4] | Log K2 [4] | Log K3 [4] | Log K4 [4] | Log K02 [3] | Log K4 [2] | further results
1 | c1ccc(CNCc2cccc(CNCc3ccccn3)n2)nc1 [PAA No. 21, 2,6-Bis(l-(3-(2-Pyridyl)-2-Azapropyl))Pyridine] |  |  |  |  |  |  |  |  |  | oxidation of the cobalt ion of the Co(II) complex ([1]; Co(II) complex of the PAA): relatively rapid, irreversible oxidation of the cobalt ion to Co(III)
2 | CN(CCCNCc1ccccn1)CCCNCc1ccccn1 [PAA No. 76, 1,11-Bis(2-Pyridyl)-6-Methyl-2,6,10-Triazaundecane] |  |  |  |  |  |  |  |  |  | oxygen binding of the cobalt complex ([1]; cobalt complex of the PAA, spectrophotometric analysis, under conditions of interest): does not appear to bind oxygen
3 | c1ccc(CNCc2cccc(CNCc3ccccn3)n2)nc1 [compound 21] | 7.74 | 6.69 | 2.95 | 7.55 | 6.86 | 3.2 | 2.9 |  |  | Log K02 (symbol) ([3]; Ref. 2): *
4 | NCCNCCNCCNCCN [compound 33] |  |  |  | 9.85 | 9.27 | 8.19 | 5.08 | 15.83 |  | EPA [5, 6]: -0.33 V; EPC [5, 6]: -0.45 V; E° [5, 6]: -0.39 V; ΔE [5, 6]: 0.12 V; EPA [5, 7]: 0.7 V; EPC [5, 7]: -0.5 V; ΔE [5, 7]: 1.2 V; Log K5 [4]: 3.43
5 | c1ccc(CNCCNCCNCc2ccccn2)nc1 [compound 62] | 8.91 | 6.95 | 3.64 | 8.88 | 7.04 | 3.82 | 1.44 | 11.4 |  | EPA [5, 8]: 0.0 V; EPC [5, 8]: -0.1 V; E° [5, 8]: -0.05 V; ΔE [5, 8]: 0.1 V; EPA [5, 9]: 0.75 V; EPC [5, 9]: -0.55 V; ΔE [5, 9]: 1.3 V
6 | c1ccc(CCNCc2cccc(CNCCc3ccccn3)n2)nc1 [compound 63] | 8.75 | 7.61 | 3.81 |  |  |  |  |  |  | EPA [5, 10]: N.O.; EPC [5, 10]: N.O.; ΔE [5, 10]: N.O.
7 | c1ccc(CNCCCNCCCNCc2ccccn2)nc1 [compound 64] | 9.54 | 7.44 | 6.34 | 9.92 | 7.63 | 6.76 | 1.79 | 7.7 |  | EPA [5, 11]: 0.4 V; EPC [5, 11]: -0.45 V; E° [5, 11]: -0.05 V; ΔE [5, 11]: 0.85 V; EPA [5, 12]: 0.08 V; EPC [5, 12]: -0.4 V; ΔE [5, 12]: 1.2 V
8 | NCCNCc1cccc(CNCCN)n1 [compound 69] | 9.31 | 8.6 | 5.9 |  |  |  |  |  | 4.74 | EPA [5, 13]: 0.5 V; EPC [5, 13]: -0.2 V; ΔE [5, 13]: 0.7 V
9 | c1ccc(CNCCCNCCNCc2ccccn2)nc1 [compound 72] | 8.6 | 6.75 | 4.76 |  |  |  |  |  |  | EPA [5, 14]: 0.03 V; EPC [5, 14]: 0.66 V; E° [5, 14]: -0.02 V; ΔE [5, 14]: 0.11 V; EPA [5, 15]: 0.66 V; EPC [5, 15]: -0.07 V; ΔE [5, 15]: 0.73 V
10 | c1c[nH]c(CNCCCNCCCNCc2ncc[nH]2)n1 [compound 73] |  |  |  | 9.76 | 7.22 | 6.51 | 3.92 | 8.63 |  | Log K5 [4]: 3.29
11 | c1nc(CNCCCNCCCNCc2c[nH]cn2)c[nH]1 [compound 74] | 9.75 | 8.58 | 7.2 | 10.12 | 8.62 | 7.36 | 4.51 | 9.49 | 4.75 | Log K5 [2]: 3.75; Log K5 [4]: 3.82
12 | c1nc(CNCCNCCNCc2c[nH]cn2)c[nH]1 [compound 75] | 9.15 | 8.03 | 4.92 | 9.22 | 8.18 | 4.91 | 3.90 |  | 3.91 | Log K5 [4]: 2.92
13 | CN(CCCNCc1ccccn1)CCCNCc1ccccn1 [compound 76] | 9.15 | 7.20 | 5.79 |  |  |  |  |  | 3.40 | EPA [5, 16]: 0.25 V; EPC [5, 16]: -0.35 V; ΔE [5, 16]: 0.6 V
14 | c1ccc(CNCCCCNCCCNCc2ccccn2)nc1 [compound 78] | 9.36 | 7.69 | 6.60 |  |  |  |  |  |  | EPA [5, 17]: 0.18 V; EPC [5, 17]: 0.1 V; E° [5, 17]: 0.14 V; ΔE [5, 17]: 0.08 V; EPA [5, 18]: 0.185 V; EPC [5, 18]: 0.055 V; E° [5, 18]: 0.12 V; ΔE [5, 18]: 0.13 V
15 | Cc1cccc(CNCCNCCNCc2cccc(C)n2)n1 [compound 80] | 8.52 | 6.72 | 4.1 |  |  |  |  |  | 3.28 | Log K5 [2]: 2.86
16 | Cc1cccc(CNCCCNCCCNCc2cccc(C)n2)n1 [compound 81] | 9.44 | 7.40 | 6.25 |  |  |  |  |  | 3.40 | 
